Measurements published in patent publication US10640468B2, “1-(4-(2-((1-(3,4-difluorophenyl)-1H-pyrazol-3-Yl)methoxy)ethyl)piperazin-1- Yl)ethanone salts” (ESTEVE PHARMACEUTICALS S.A., priority 2015, dated 2020).
Values joined by “and” are separate entries in the source; they are usually repeats but may differ in a detail not shown here. Equal entries are not always repeated. Structures can show the parent of a compound that is named as a salt.

What was measured:
[1] = acid; cited from earlier work
[2] = pKa of the free base compound; assay type: physicochemical
[3] = Solubility study of Example 0 in solvents (volumes needed to dissolve the solid); assay type: physicochemical
Description: Previously a solubility study was performed with compound Example 0. The results are shown in Table 1 wherein number of volumes needed to dissolve the solid in the corresponding solvent at room temperature is shown. If at 50 volumes, dissolution was not observed at room temperature, mixture was heated to reflux temperature.

[4] = Pharmacokinetics after single oral administration to male Wistar rat; assay type: in vivo
Description: The pharmacokinetics of Example 1 and 2 were tested using the following protocol:
Male Wistar rats weighing 250 to 300 g (±20) supplied by Harlan were used. Water and food was available ad libitum throughout the study.
Administration and Sample Collection
Two rats (R1 and R2) were used in the pharmacokinetic oral studies.
A single dose of tested compound was administered by oral gavage [10 mg/kg as free base (Example 0)] in 0.5% hydroxypropyl methylcellulose (1 mg/ml). From each rat, serial blood samples were collected at 15 and 30 min, 1, 2, 3, 5, 7 and 24 h.
Blood was collected from the saphenous veins into heparinized tubes. Plasma was obtained by blood centrifugation at 4° C. and 2280×g for 10 min and kept at −80° C. until analysis.
Tested compound concentration in plasma samples was determined by least-squares linear regression using a ten-point calibration curve. The calibration curve was prepared in blank plasma from a working solution of 1 mg/ml in DMSO.
Samples were thawed at room temperature on the day of analysis. After plasma protein precipitation of samples and calibration standards with acetonitrile (1:4.3; v/v), the mixture was vortexed and centrifuged (4° C. and 16090×g for 10 min).
Tested compound plasma concentrations were determined by high performance liquid chromatography-triple quadrupole mass spectrometry (HPLC-MS/MS) through the following method:
Column: Atlantis® T3 column (2.1×100 mm, 3 μm) (Waters).
Mobile phase: A: 0.0155% Formic water • B: 0.0155% Formic Acetonitrile
Autosampler wash: Solvent 1:Acetonitrile • Solvent 2: 5% Acetonitrile+95% Water
Standard pharmacokinetic parameters, such as area under the curve (AUC), peak plasma concentration (Cmax), time to peak concentration (tmax), oral bioavailability (F), total plasma clearance (Cl), volume of distribution at steady-state (Vss), mean residence time (MRT) and terminal half-life (t1/2), were determined by non-compartmental analysis of the plasma concentration-time curves (Phoenix v. 6.2.1.51, Pharsight, C A).

[5] = Thermodynamic solubility at pH 7.4; assay type: physicochemical; conditions: maleate
Description: General protocol for thermodynamic solubility at pH 7.4 and pH 2 are described. • A) Thermodynamic Solubility at pH 7.4
Phosphate buffer at pH 7.4 (25 mM) was prepared as follows:
A solution 25 mM of Na2HPO4.12H2O (for 1 L of water, weight 8.96 g) was prepared
A solution 25 mM de KH2PO4 (for 1 L of water weight 3.4 g) was prepared.
Disodium phosphate solution (812 mL) and potassium phosphate (182 mL) solution were mixed and pH checked to be 7.4.
Equipment • Precision analytical balance Mettler Toledo AT20. • Analytical balance Mettler Toledo PJ300. • Liquid chromatograph Waters Alliance 2695. • Stirrer Thermomixer Control of Eppendorf a 25° C. y 1250 rpm • pHmeter with combined semi-micro electrode.
Around 4 mg of compound in an HPLC vial (by duplicate) was dissolved in 1 mL of buffer solution. After stirring in Thermomixer Comfort system for 24 hours at 25° C., in order to achieve thermodynamic equilibrium, solution was centrifuged at 3000 rpm for 15 minutes.
The resulting upper layer was collected with a glass pipette and transferred to the HPLC vials in order to inject them (10 μL) directly to the HPLC instrument.
Standards were made in methanol to ensure overall compound solubility. Preparation of standard calibrators is illustrated below:
Sol.A: 4 mg in 1 mL methanol (4000 μg/mL)
Sol.B: 0.5 mL Sol.A to 5 mL with methanol (400 μg/mL)
Sol.C: 1 mL Sol.B to 10 mL with methanol (40 μg/mL)
Sol.D: 5 mL […] to 50 mL with methanol (4 μg/mL)
Sol.E: 4 mL Sol.D to 10 mL with methanol (1.6 μg/mL)
Calibration curve was created through 10 μL injection of standards, beginning with the more diluted standard. Blanks were also injected, for checking the absence of contamination.
10 μl of test substance were injected, by duplicate, and the average peak area interpolated in the calibration curve (see Tables Examples below).
Chromatographic Conditions • Column: XBridge C18 (or similar) 2.5 μm 4.6×50 mm • Temperature: 35° C. • Mobile phase: ACN/ammonium bicarbonate 10 mM. • Gradient: 0-3.5 min: from 15% CAN to 95% CAN • 3.5-5 min: 95% ACN • 5-6 min: 95 a 15% ACN • 6-8 min: 15% ACN • Flow: 1.5 mL/min • Detection: around the maximum UV wavelength. • B) Thermodynamic Solubility at pH 2

[6] = animal 1, 10 mg/kg oral, maleate
[7] = animal 2, 10 mg/kg oral, maleate
[8] = mean of 2 rats, 10 mg/kg oral, listed as example 2, maleate, 10 mg/kg
[9] = mean of 2 rats, 10 mg/kg oral, maleate, 10 mg/kg

O=[N+]([O-])O [Nitric acid]
pKa1 [1]: Strong

CCS(=O)(=O)O [Ethanesulfonic acid]
pKa1 [1]: 2.05

O=S(=O)(O)c1ccccc1 [Benzensulphonic acid]
pKa1 [1]: 0.7

CCCCCCCCCC(=O)O [Capric acid]
pKa1 [1]: 4.9

CC(=O)N1CCN(CCOCc2ccn(-c3ccc(F)c(F)c3)n2)CC1 (as salt: hydrochloride) [Example 1]
melting point: 155 to 157 °C

Br [Hydrobromic acid]
pKa1 [1]: Strong

CCCCCC(=O)O [Caproic acid]
pKa1 [1]: 4.88

CCCCCCCC(=O)O [Caprylic acid]
pKa1 [1]: 4.89

CC(=O)N1CCN(CCOCc2ccn(-c3ccc(F)c(F)c3)n2)CC1 (as salt: maleate) [Example 2]
melting point: 160 to 162 °C

CC(=O)N1CCN(CCOCc2ccn(-c3ccc(F)c(F)c3)n2)CC1 [Example 0, 1-(4-(2-((1-(3,4-difluorophenyl)-1H-pyrazol-3-yl)methoxy)ethyl)piperazin-1-yl)ethanone]
pKa [2]: 6.37
number of volumes needed to dissolve the solid ([3]; CH2Cl2, room temperature): 3 volumes
number of volumes needed to dissolve the solid ([3]; CH3CN, room temperature): 15 volumes
number of volumes needed to dissolve the solid ([3]; EtOH, room temperature): 4 volumes
number of volumes needed to dissolve the solid ([3]; H2O, room temperature, heated to reflux at 50 volumes, no dissolution observed): > 50^[1] volumes
number of volumes needed to dissolve the solid ([3]; MIBK, room temperature): 17 volumes
number of volumes needed to dissolve the solid ([3]; THF, room temperature): 4 volumes

CC(=O)N1CCN(CCOCc2ccn(-c3ccc(F)c(F)c3)n2)CC1 [Example 2, maleate]
AUC [4, 6]: 2227 ng·h/mL
Cmax [4, 6]: 1.386 µg/mL
t1/2 [4, 6]: 102 min
F ([4]; animal 1, 10 mg/kg oral, mean AUC after i.v. administration used for calculation, maleate): 50%
AUC [4, 7]: 1768 ng·h/mL
Cmax [4, 7]: 1.039 µg/mL
t1/2 [4, 7]: 72 min
tmax [4, 7]: 30 min
F ([4]; animal 2, 10 mg/kg oral, mean AUC after i.v. administration used for calculation, maleate): 40%
AUC [4, 8]: ~2000 ng·h/mL
tmax [4, 8]: 22.8 min
AUC [4, 9]: 1997 ng·h/mL
t1/2 (terminal half-life) [4, 9]: 90 min
tmax [4, 9]: 24 min
F (oral bioavailability) ([4]; mean of 2 rats, 10 mg/kg oral, mean AUC after i.v. administration used for calculation, maleate, 10 mg/kg): 45%
Plasma concentration ([4]; rat R1, 0.5 h, 10 mg/kg oral, maleate, 10 mg/kg): 1.251 µg/mL
Plasma concentration ([4]; rat R1, 1 h, 10 mg/kg oral, maleate, 10 mg/kg): 0.907 µg/mL
Plasma concentration ([4]; rat R1, 2 h, 10 mg/kg oral, maleate, 10 mg/kg): 0.289 µg/mL
Plasma concentration ([4]; rat R1, 3 h, 10 mg/kg oral, maleate, 10 mg/kg): 0.157 µg/mL
Plasma concentration ([4]; rat R1, 5 h, 10 mg/kg oral, maleate, 10 mg/kg): 0.045 µg/mL
Plasma concentration ([4]; rat R1, 7 h, 10 mg/kg oral, maleate, 10 mg/kg): 0.041 µg/mL
Plasma concentration ([4]; rat R2, 0.5 h, 10 mg/kg oral, maleate, 10 mg/kg): 1.039 µg/mL
Plasma concentration ([4]; rat R2, 1 h, 10 mg/kg oral, maleate, 10 mg/kg): 0.639 µg/mL
Plasma concentration ([4]; rat R2, 2 h, 10 mg/kg oral, maleate, 10 mg/kg): 0.317 µg/mL
Plasma concentration ([4]; rat R2, 3 h, 10 mg/kg oral, maleate, 10 mg/kg): 0.095 µg/mL
Plasma concentration ([4]; rat R2, 5 h, 10 mg/kg oral, maleate, 10 mg/kg): 0.075 µg/mL
Plasma concentration ([4]; rat R2, 7 h, 10 mg/kg oral, maleate, 10 mg/kg): 0.013 µg/mL
Conc. Mean ([5]; pH 7.4, mean of 4 injections): 4468.706 µg/mL
Conc. ([5]; pH 7.4, single HPLC injections of duplicate vials): 4593.8 µg/mL and 4408.7 µg/mL and 4338.8 µg/mL and 4533.6 µg/mL
